Results on three molecules are retold here after paper PMC3319563 (PLoS ONE, 2012).

One may read the kcat as the number of substrate molecules converted per active site and unit of time at saturation.

In data set [1] the target is T1, AtuGSTH1-1 (Agrobacterium fabrum, UniProt A9CFJ9).
T1 construct: gene Atu3701; homodimer by crystal symmetry
T1 sequence (A9CFJ9 1-230): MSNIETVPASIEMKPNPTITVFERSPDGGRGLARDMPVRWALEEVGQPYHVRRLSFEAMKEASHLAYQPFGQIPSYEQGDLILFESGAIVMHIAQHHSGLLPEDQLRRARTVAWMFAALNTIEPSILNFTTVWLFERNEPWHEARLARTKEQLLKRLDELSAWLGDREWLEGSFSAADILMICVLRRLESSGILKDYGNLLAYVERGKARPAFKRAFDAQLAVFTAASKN
Briefly: steady-state kinetics, thioltransferase assay. In kind it is biochemical. The following applies: co-substrate GSH; 0.1 M potassium phosphate pH 6.5, 37 °C; read-out: Κm. An excerpt: steady-state kinetics, thioltransferase assay on AtuGSTH1-1

For data set [2], the target named is T1, AtuGSTH1-1. The data set is described as follows: steady-state kinetics, GST assay. In kind it is biochemical. The note with it: co-substrate GSH; 0.1 M potassium phosphate pH 6.5, 37 °C; read-out: Κm. From the text: steady-state kinetics, GST assay on AtuGSTH1-1
In data set [3] the target is T2, AtuGSTH1-1 (Agrobacterium fabrum, UniProt A9CFJ9, S25A).
T2 construct: gene Atu3701
The note with it: read-out: Km, (mM) (CDNB) / Km, (mM) (CuOOH); co-substrate GSH.

Data set [4] addresses T3, AtuGSTH1-1 (Agrobacterium fabrum, UniProt A9CFJ9, R187A).
T3 construct: gene Atu3701
The following applies: read-out: Km, (mM) (CDNB) / Km, (mM) (CuOOH); co-substrate GSH.

In data set [5] the target is T4, AtuGSTH1-1 (Agrobacterium fabrum, UniProt A9CFJ9, F22A).
T4 construct: gene Atu3701
The following applies: read-out: Km, (mM) (CDNB) / Km, (mM) (CuOOH); co-substrate GSH.

Substrate in data set [6]: CC(C)(C)OO
Briefly: steady-state kinetics, GSH-dependent peroxidase assay. In kind it is biochemical, Agrobacterium fabrum. The note with it: co-substrate GSH, 0.1 M potassium phosphate pH 6.5, 37 °C.

Substrate in data set [7]: CC(C)(OO)c1ccccc1
Described as above. The note with it: co-substrate GSH, 0.1 M potassium phosphate pH 6.5, 37 °C. The class given is biochemical, Agrobacterium fabrum.

On to `OCCSSCCO` [HEDS], for which the Km on AtuGSTH1-1 [1] stood at 4100 ± 120 µM.

In the case of `O=[N+]([O-])c1ccc(Cl)c([N+](=O)[O-])c1` [CDNB, 1-chloro-2,4-dinitrobenzene], the Km is 1500 ± 90 µM at AtuGSTH1-1 [2], 1.9 ± 0.18 mM at AtuGSTH1-1 [3], 7.1 ± 0.76 mM on AtuGSTH1-1 [4] and 3.2 ± 0.39 mM at AtuGSTH1-1 [5].

B1: AtuGSTH1-1 (Agrobacterium fabrum str. C58) (protein)
chain: MSNIETVPASIEMKPNPTITVFERSPDGGRGLARDMPVRWALEEVGQPYHVRRLSFEAMKEASHLAYQPFGQIPSYEQGDLILFESGAIVMHIAQHHSGLLPEDQLRRARTVAWMFAALNTIEPSILNFTTVWLFERNEPWHEARLARTKEQLLKRLDELSAWLGDREWLEGSFSAADILMICVLRRLESSGILKDYGNLLAYVERGKARPAFKRAFDAQLAVFTAASKN
notes: homodimer by crystal symmetry
Consider B1, for which the figures for the Km in data set [6] and in data set [7] were 1600 ± 70 µM and 2700 ± 210 µM, respectively. In addition, the kcat was found to be 2.495 ± 0.0868 s⁻¹ in data set [6] and 5.657 ± 0.101 s⁻¹ in data set [7].
